{"source": "patent US20240391940A1", "about": "“FUSED RING-CONTAINING COMPOUND, APPLICATION THEREOF, AND COMPOSITION CONTAINING SAME” (GenEros Biopharma Ltd., priority 2020, published 2024)", "key": {"[1]": {"test_system": "IMQ-induced psoriasis mouse model", "experiment": "IMQ-induced psoriasis mouse model (PASI scoring)", "type": "in vivo, Balb/c mice", "set-up": "key to skin thickening in psoriasis mice (score) / skin redness in psoriasis mice (score) / skin scaling in psoriasis mice (score): 0 = none to 4 = very severe, per sign", "conditions": "DEX 3 mpk PO QD", "description": "Method: This experiment used a total of 19 mice. A natural skin observation control (n=1). 2 cm^2 of hair was shaved off the backs of […] on day 0, the stubble was removed with a mild depilatory cream, and the original skin was photographed. 62.5 mg of IMQ was applied to each of the mice. There was a mock group (n=6), a DEX (3 mg/kg, PO., qD) group (n=6), and a GEN1-284s (30 mg/kg, PO, qD) group (n=6). On the day of modeling, administration was performed in a volume of 100 μL/20 g body weight 4 h after IMQ application. The PASI scoring method was used to score the erythema, swelling and scaling on the skin of the mice. The experiment took a total of 6 days. The first day was set to day 0. IMQ application and administration were not performed on day 5. The mice were sacrificed with carbon dioxide at the end of the experiment.\nThe test animals were anesthetized with isoflurane. 2 cm^2 of hair was shaved off the backs of the mice, and the stubble was removed with a depilatory cream. IMQ application was performed for a total of 5 days, from day 0 to day 4. Scoring and IMQ application were performed every morning. Administration was performed in the afternoon\nDesquamation (D): means epidermal cells flake off. The severity scores of skin lesions were as follows: • 0=none; this sign cannot be confirmed by careful observation • 1=mild; this sign can be confirmed but careful observation is required • 2=moderate; this sign is more visible and can be confirmed immediately • 3=severe; this sign is marked. • 4=very severe; this sign is very marked.\nInduration I: 0—skin lesions are at the same level as normal skin; • 1—skin lesions are at slightly higher levels than normal skin surface; • 2—lesions moderately stick out and have round or slope-shaped borders; • 3—skin lesions are thick and markedly stick out; • 4—skin lesions are very thick and very markedly stick out.\nErythema E: • 0—no visible erythema; • 1—light red; • 2—red; • 3—dark red; • 4—the red is very dark"}, "[2]": {"test_system": "LPS-induced production of TNF-α", "experiment": "LPS-induced TNF-α production in mice (plasma ELISA)", "type": "in vivo", "conditions": "Balb/c mice; dexamethasone 3 mpk, LPS 1 mpk i.p. 0.5 h after administration, plasma 2 h after LPS", "description": "Materials and method: A total of 18 mice were used in this experiment. The mice were divided into a MOCK group (n=6), a dexamethasone group (n=6), and a GEN1-284s 15 mpk group (n=6). LPS (1 mpk) was intraperitoneally injected 0.5 h after administration. The mice were sacrificed 2 h after the LPS injection, and blood samples were taken. The blood samples were left in EDTA-K2 anticoagulant tubes at room temperature for 20 min and centrifuged at 8000 rpm for 10 min. The plasma was separated and cryopreserved at −80° C. before analysis.\nLPS (1 mpk) was intraperitoneally injected 0.5 h after administration. The mice were sacrificed 2 h after the LPS injection, and blood samples were taken. The blood samples were left in EDTA-K2 anticoagulant tubes at room temperature for 20 min and centrifuged at 8000 rpm for 10 min. The plasma was separated and cryopreserved at −80° C. before analysis.\nThe mice were tested for TNF-α level with ELISA kits, and the inhibitory effect of GEN1-284s on the TNF-α level was evaluated.\nAccording to the instructions for use, a standard curve formula (y=0.0038x+0.1206, R^2=0.9956) was obtained and can be used to calculate detection values."}, "[3]": {"conditions": "DAY 1, individual mice, listed as DEX"}, "[4]": {"conditions": "DAY 2, individual mice, listed as DEX"}, "[5]": {"conditions": "DAY 3, individual mice, listed as DEX"}, "[6]": {"conditions": "DAY 4, individual mice, listed as DEX"}, "[7]": {"conditions": "DAY 5, individual mice, listed as DEX"}}, "note": "Several values for one entry are separate records, joined by “and”; a condition that tells them apart may be missing. Equal values may be shown once.", "data": [{"smiles": "C[C@@H]1C[C@H]2[C@@H]3CCC4=CC(=O)C=C[C@]4(C)[C@@]3(F)[C@@H](O)C[C@]2(C)[C@@]1(O)C(=O)CO", "note": "[dexamethasone, Dexamethasone, reference compound]", "values": [{"measurement": "overall effect on the skin of psoriasis mice (score)", "setting": "[1]; DAY 0, individual mice", "result": 0}, {"measurement": "skin redness in psoriasis mice (score)", "setting": "[1]; DAY 0, individual mice", "result": 0}, {"measurement": "skin scaling in psoriasis mice (score)", "setting": "[1]; DAY 0, individual mice", "result": 0}, {"measurement": "skin thickening in psoriasis mice (score)", "setting": "[1]; DAY 0, individual mice", "result": 0}, {"measurement": "overall effect on the skin of psoriasis mice (score)", "setting": "[1]; [3]", "result": "1.167 (2×) and 0.5 and 1.333 (2×) and 0.8333"}, {"measurement": "skin redness in psoriasis mice (score)", "setting": "[1]; [3]", "result": "0.6667 (2×) and 0.1667 and 0.3333 and 0.5 (2×)"}, {"measurement": "skin scaling in psoriasis mice (score)", "setting": "[1]; [3]", "result": "0.5 and 0.3333 (2×) and 0.8333 (2×) and 0.1667"}, {"measurement": "skin thickening in psoriasis mice (score)", "setting": "[1]; [3]", "result": "0 (5×) and 0.5"}, {"measurement": "overall effect on the skin of psoriasis mice (score)", "setting": "[1]; [4]", "result": "1.333 and 1 and 0.5 and 0.8333 and 1.667 and 0.6667"}, {"measurement": "skin redness in psoriasis mice (score)", "setting": "[1]; [4]", "result": "0.5 (2×) and 0.6667 (2×) and 0.1667 (2×)"}, {"measurement": "skin scaling in psoriasis mice (score)", "setting": "[1]; [4]", "result": "0.8333 and 0.3333 and 0 (2×) and 0.6667 and 1"}, {"measurement": "skin thickening in psoriasis mice (score)", "setting": "[1]; [4]", "result": "0 (5×) and 0.5"}, {"measurement": "overall effect on the skin of psoriasis mice (score)", "setting": "[1]; [5]", "result": "2.5 and 3 and 1 and 2 (2×) and 1.667"}, {"measurement": "skin redness in psoriasis mice (score)", "setting": "[1]; [5]", "result": "1.167 and 1 and 0.5 (2×) and 0.3333 and 0.6667"}, {"measurement": "skin scaling in psoriasis mice (score)", "setting": "[1]; [5]", "result": "1.333 and 1.5 and 0.5 (2×) and 1 and 1.167"}, {"measurement": "skin thickening in psoriasis mice (score)", "setting": "[1]; [5]", "result": "0 (2×) and 0.5 (4×)"}, {"measurement": "overall effect on the skin of psoriasis mice (score)", "setting": "[1]; [6]", "result": "2.333 (2×) and 1.5 and 3.5 and 3.667 and 2.667"}, {"measurement": "skin redness in psoriasis mice (score)", "setting": "[1]; [6]", "result": "0.6667 and 0.5 (2×) and 1.167 (2×) and 1.667"}, {"measurement": "skin scaling in psoriasis mice (score)", "setting": "[1]; [6]", "result": "1.167 and 1 (2×) and 1.833 and 1.333 and 1.5"}, {"measurement": "skin thickening in psoriasis mice (score)", "setting": "[1]; [6]", "result": "0.5 (5×) and 0"}, {"measurement": "overall effect on the skin of psoriasis mice (score)", "setting": "[1]; [7]", "result": "3.333 and 2.5 and 3.667 and 2.833 (2×) and 3.5"}, {"measurement": "skin redness in psoriasis mice (score)", "setting": "[1]; [7]", "result": "1.167 and 1 (2×) and 0.8333 and 0.6667 and 1.5"}, {"measurement": "skin scaling in psoriasis mice (score)", "setting": "[1]; [7]", "result": "1.667 (2×) and 1.5 (2×) and 2.333 and 1.333"}, {"measurement": "skin thickening in psoriasis mice (score)", "setting": "[1]; [7]", "result": "0.5 (5×) and 0"}, {"measurement": "Inhibition rate against LPS-induced TNF-α", "setting": "[2]", "result": 81, "unit": "%"}]}]}
